For this experiment, the target named is human APJ receptor (Homo sapiens (Human), UniProt P35414). In words: [35S]GTPγS binding assay on membranes from CHO cells stably expressing human APJ receptor. The class given is biochemical. The following applies: read-out: Activity hAPJ SPA EC50 IP. The procedure, abridged: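 Membranes from CHO cells stably expressing human APJ incubated with ligand, 0.2 nM [35S]GTPγS and WGA SPA beads in HEPES pH 7.5 with 5 mM MgCl2, 200 mM NaCl, 3 μM GDP, 90 min at RT. Nonspecific binding defined with 100 μM GTPγS; EC50 by non-linear regression.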
Sequence of human APJ receptor (P35414 whole entry): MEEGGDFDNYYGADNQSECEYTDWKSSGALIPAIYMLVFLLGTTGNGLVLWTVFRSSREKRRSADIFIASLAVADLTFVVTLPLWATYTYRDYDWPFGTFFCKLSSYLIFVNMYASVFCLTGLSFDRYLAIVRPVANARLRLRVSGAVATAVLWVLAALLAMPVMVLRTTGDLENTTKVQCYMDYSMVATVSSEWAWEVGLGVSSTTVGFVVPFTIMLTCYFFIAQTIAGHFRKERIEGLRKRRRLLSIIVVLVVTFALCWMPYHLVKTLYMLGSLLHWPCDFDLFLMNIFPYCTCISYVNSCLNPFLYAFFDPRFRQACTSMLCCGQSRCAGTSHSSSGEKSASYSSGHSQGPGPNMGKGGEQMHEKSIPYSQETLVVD

With `COc1ncnc(OC)c1-n1c(NS(=O)(=O)[C@@H](C)[C@H](C)c2ncc(Cl)cn2)nnc1[C@@H]1CCCCO1` (single isomer, unassigned) [Example 191.0, (2S,3R)-3-(5-chloropyrimidin-2-yl)-N-(4-(4,6-dimethoxypyrimidin-5-yl)-5-((S)-tetrahydro-2H-pyran-2-yl)-4H-1,2,4-triazol-3-yl)butane-2-sulfonamide or (2S,3R)-3-(5-chloropyrimidin-2-yl)-N-(4-(4,6-dimethoxypyrimidin-5-yl)-5-((R)-tetrahydro-2H-pyran-2-yl)-4H-1,2,4-triazol-3-yl)butane-2-sulofnamide], the EC50 is 4.1 nM.

For the compound `COc1ncnc(OC)c1-n1c(NS(=O)(=O)[C@@H](C)[C@H](C)c2ncc(Cl)cn2)nnc1[C@@H]1CCCCO1` (single isomer, unassigned) [Example 192.0, (2S,3R)-3-(5-chloropyrimidin-2-yl)-N-(4-(4,6-dimethoxypyrimidin-5-yl)-5-((S)-tetrahydro-2H-pyran-2-yl)-4H-1,2,4-triazol-3-yl)butane-2-sulfonamide or (2S,3R)-3-(5-chloropyrimidin-2-yl)-N-(4-(4,6-dimethoxypyrimidin-5-yl)-5-((R)-tetrahydro-2H-pyran-2-yl)-4H-1,2,4-triazol-3-yl)butane-2-sulfonamide], the EC50 turned out to be 1 nM. As to `COc1ncnc(OC)c1-n1c(NS(=O)(=O)[C@@H](C)[C@H](C)c2ncc(Cl)cn2)nnc1[C@@H]1COCCO1` (single isomer, unassigned) [Example 196.0, (2S,3R)-3-(5-chloropyrimidin-2-yl)-N-(4-(4,6-dimethoxypyrimidin-5-yl)-5-((R)-1,4-dioxan-2-yl)-4H-1,2,4-triazol-3-yl)butane-2-sulfonamide or (2S,3R)-3-(5-chloropyrimidin-2-yl)-N-(4-(4,6-dimethoxypyrimidin-5-yl)-5-((S)-1,4-dioxan-2-yl)-4H-1,2,4-triazol-3-yl)butane-2-sulfonamide], the EC50 came to 130 nM. Next, `COc1cccc(OC)c1-n1c(NS(=O)(=O)[C@@H](C)[C@H](C)c2ncc(C)cn2)nnc1[C@H]1CN(S(C)(=O)=O)CCO1` (single isomer, unassigned) [Example 230.0]: 450 nM; `COc1cccc(OC)c1-n1c(NS(=O)(=O)[C@@H](C)[C@H](C)c2ncc(C)cn2)nnc1[C@H]1CN(S(C)(=O)=O)CCO1` (single isomer, unassigned) [Example 231.0]: 880 nM; `COc1ncnc(OC)c1-n1c(NS(=O)(=O)[C@@H](C)[C@H](OC)c2ncc(C)cn2)nnc1[C@@H]1Cc2ccccc2O1` (single isomer, unassigned) [Example 232.0, (1R,2S)-N-(5-((S)-2,3-dihydrobenzofuran-2-yl)-4-(4,6-dimethoxypyrimidin-5-yl)-4H-1,2,4-triazol-3-yl)-1-methoxy-1-(5-methylpyrimidin-2-yl)propane-2-sulfonamide or (1R,2S)-N-(5-((R)-2,3-dihydrobenzofuran-2-yl)-4-(4,6-dimethoxypyrimidin-5-yl)-4H-1,2,4-triazol-3-yl)-1-methoxy-1-(5-methylpyrimidin-2-yl)propane-2-sulfonamide]: 220 nM.

`C[C@H](c1ncc(Cl)cn1)[C@H](C)S(=O)(=O)Nc1nnc([C@@H]2COCCO2)n1C1CCOCC1` (single isomer, unassigned) [Example 245.0, (2S,3R)-3-(5-chloro-2-pyrimidinyl)-N-(5-((2R)-1,4-dioxan-2-yl)-4-(tetrahydro-2H-pyran-4-yl)-4H-1,2,4-triazol-3-yl)-2-butanesulfonamide or (2S,3R)-3-(5-chloro-2-pyrimidinyl)-N-(5-((2S)-1,4-dioxan-2-yl)-4-(tetrahydro-2H-pyran-4-yl)-4H-1,2,4-triazol-3-yl)-2-butanesulfonamide]: the EC50 was 620 nM. `C[C@H](c1ncc(Cl)cn1)[C@H](C)S(=O)(=O)Nc1nnc([C@@H]2COCCO2)n1C1CCOCC1` (single isomer, unassigned) [Example 246.0, (2S,3R)-3-(5-chloro-2-pyrimidinyl)-N-(5-((2R)-1,4-dioxan-2-yl)-4-(tetrahydro-2H-pyran-4-yl)-4H-1,2,4-triazol-3-yl)-2-butanesulfonamide or (2S,3R)-3-(5-chloro-2-pyrimidinyl)-N-(5-((2S)-1,4-dioxan-2-yl)-4-(tetrahydro-2H-pyran-4-yl)-4H-1,2,4-triazol-3-yl)-2-butanesulfonamide]: the EC50 is more than 4200 nM. Regarding `CO[C@H](c1ncc(Cl)cn1)[C@H](C)S(=O)(=O)Nc1nnc([C@@H]2COCCO2)n1C1CCOCC1` (single isomer, unassigned) [Example 247.0, (1R,2S)-1-(5-chloro-2-pyrimidinyl)-N-(5-((2R)-1,4-dioxan-2-yl)-4-(tetrahydro-2H-pyran-4-yl)-4H-1,2,4-triazol-3-yl)-1-methoxy-2-propanesulfonamide or (1R,2S)-1-(5-chloro-2-pyrimidinyl)-N-(5-((2S)-1,4-dioxan-2-yl)-4-(tetrahydro-2H-pyran-4-yl)-4H-1,2,4-triazol-3-yl)-1-methoxy-2-propanesulfonamide], the EC50 is 240 nM. The figure for `CO[C@H](c1ncc(Cl)cn1)[C@H](C)S(=O)(=O)Nc1nnc([C@@H]2COCCO2)n1C1CCOCC1` (single isomer, unassigned) [Example 248.0, (1R,2S)-1-(5-chloro-2-pyrimidinyl)-N-(5-((2R)-1,4-dioxan-2-yl)-4-(tetrahydro-2H-pyran-4-yl)-4H-1,2,4-triazol-3-yl)-1-methoxy-2-propanesulfonamide or (1R,2S)-1-(5-chloro-2-pyrimidinyl)-N-(5-((2S)-1,4-dioxan-2-yl)-4-(tetrahydro-2H-pyran-4-yl)-4H-1,2,4-triazol-3-yl)-1-methoxy-2-propanesulfonamide] is 0.58 nM; for `COCC(COC)n1c(NS(=O)(=O)[C@@H](C)[C@H](OC)c2ncc(Cl)cn2)nnc1[C@@H]1COCCO1` (single isomer, unassigned) [Example 250.0, (1R,2S)-1-(5-chloro-2-pyrimidinyl)-N-(4-(1,3-dimethoxy-2-propanyl)-5-((2R)-1,4-dioxan-2-yl)-4H-1,2,4-triazol-3-yl)-1-methoxy-2-propanesulfonamide or (1R,2S)-1-(5-chloro-2-pyrimidinyl)-N-(4-(1,3-dimethoxy-2-propanyl)-5-((2S)-1,4-dioxan-2-yl)-4H-1,2,4-triazol-3-yl)-1-methoxy-2-propanesulfonamide] it is 48 nM. For `COCC(COC)n1c(NS(=O)(=O)[C@@H](C)[C@H](OC)c2ncc(Cl)cn2)nnc1[C@@H]1COCCO1` (single isomer, unassigned) [Example 251.0, (1R,2S)-1-(5-chloro-2-pyrimidinyl)-N-(4-(1,3-dimethoxy-2-propanyl)-5-((2R)-1,4-dioxan-2-yl)-4H-1,2,4-triazol-3-yl)-1-methoxy-2-propanesulfonamide or (1R,2S)-1-(5-chloro-2-pyrimidinyl)-N-(4-(1,3-dimethoxy-2-propanyl)-5-((2S)-1,4-dioxan-2-yl)-4H-1,2,4-triazol-3-yl)-1-methoxy-2-propanesulfonamide], the EC50 was 750 nM.

`COc1cccc(OC)c1-n1c(NS(=O)(=O)[C@H](C)[C@H](OC(C)C)c2cn3ccccc3n2)nnc1[C@H]1COCCO1` (single isomer, unassigned) [Example 266.0, (1R,2R)—N-(4-(2,6-dimethoxyphenyl)-5-((S)-1,4-dioxan-2-yl)-4H-1,2,4-triazol-3-yl)-1-(imidazo[1,2-a]pyridin-2-yl)-1-isopropoxypropane-2-sulfonamide or (1S,2S)—N-(4-(2,6-dimethoxyphenyl)-5-((S)-1,4-dioxan-2-yl)-4H-1,2,4-triazol-3-yl)-1-(imidazo[1,2-a]pyridin-2-yl)-1-isopropoxypropane-2-sulfonamide]: the EC50 came out at 150 nM. The figure for `COc1cccc(OC)c1-n1c(NS(=O)(=O)[C@@H](C)[C@H](C)c2ccc(Cl)cn2)nnc1[C@@H]1COCCO1` (single isomer, unassigned) [Example 267.0, (2S,3R)-3-(5-chloropyridin-2-yl)-N-(4-(2,6-dimethoxyphenyl)-5-((R)-1,4-dioxan-2-yl)-4H-1,2,4-triazol-3-yl)butane-2-sulfonamide or (2S,3R)-3-(5-chloropyridin-2-yl)-N-(4-(2,6-dimethoxyphenyl)-5-((S)-1,4-dioxan-2-yl)-4H-1,2,4-triazol-3-yl)butane-2-sulfonamide] is 2.1 nM; for `COc1cccc(OC)c1-n1c(NS(=O)(=O)[C@@H](C)[C@H](C)c2ccc(Cl)cn2)nnc1[C@@H]1COCCO1` (single isomer, unassigned) [Example 268.0, (2S,3R)-3-(5-chloropyridin-2-yl)-N-(4-(2,6-dimethoxyphenyl)-5-((R)-1,4-dioxan-2-yl)-4H-1,2,4-triazol-3-yl)butane-2-sulfonamide or (2S,3R)-3-(5-chloropyridin-2-yl)-N-(4-(2,6-dimethoxyphenyl)-5-((S)-1,4-dioxan-2-yl)-4H-1,2,4-triazol-3-yl)butane-2-sulfonamide] it is 1.9 nM. The figure for `COc1cccc(OC)c1-n1c(NS(=O)(=O)[C@@H](C)[C@H](C)c2ncc(C)cn2)nnc1[C@@H]1CCCN(C)C1` (single isomer, unassigned) [Example 269.0, (2S,3R)-N-(4-(2,6-dimethoxyphenyl)-5-((R)-1-methylpiperidin-3-yl)-4H-1,2,4-triazol-3-yl)-3-(5-methylpyrimidin-2-yl)butane-2-sulfonamide or (2S,3R)-N-(4-(2,6-dimethoxyphenyl)-5-((S)-1-methylpiperidin-3-yl)-4H-1,2,4-triazol-3-yl)-3-(5-methylpyrimidin-2-yl)butane-2-sulfonamide] is 420 nM.

As a reminder, the EC50 is the concentration giving half of the maximal effect.

For the origin of these results see patent US10150760B2, “Compounds for use in preparing heterocyclic triazole agonists of the APJ receptor” (AMGEN INC., priority 2016, dated 2018).
